From PubChem BioAssay AID330 (DTP/NCI, 2004)
Toxic doses and inconclusive results are not listed.

Tested on: P388 leukemia ip, CD2F1 mice, survival T/C
Experiment: NCI In Vivo Anticancer Drug Screen. Data for tumor model P388 Leukemia (intraperitoneal) in CD2F1 (CDF1) mice
Conditions: endpoint: median survival time, higher = longer survival
Summary of the method: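 Mice carrying the transplanted tumor received test compound or vehicle. Survival was recorded in each group, and the value is the treated-group measurement divided by that of the vehicle-treated control group.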

[1] = dose: 25.0 mg/kg/injection, schedule: Q01DX009 (ip), vehicle: saline with Tween-80
[2] = dose: 50.0 mg/kg/injection, schedule: Q01DX009 (ip), vehicle: saline with Tween-80
[3] = dose: 100.0 mg/kg/injection, schedule: Q01DX009 (ip), vehicle: saline with Tween-80
[4] = dose: 200.0 mg/kg/injection, schedule: Q01DX009 (ip), vehicle: saline with Tween-80
[5] = dose: 60.0 mg/kg/injection, schedule: Q01DX005 (ip), vehicle: saline with Tween-80
[6] = dose: 120.0 mg/kg/injection, schedule: Q01DX005 (ip), vehicle: saline with Tween-80
[7] = dose: 50.0 mg/kg/injection, schedule: Q01DX005 (ip), vehicle: saline with Tween-80
[8] = dose: 200.0 mg/kg/injection, schedule: Q01DX005 (ip), vehicle: saline with Tween-80
[9] = dose: 50.0 mg/kg/injection, schedule: Q01DX009 (ip), vehicle: saline
[10] = dose: 100.0 mg/kg/injection, schedule: Q01DX009 (ip), vehicle: saline
[11] = dose: 200.0 mg/kg/injection, schedule: Q01DX009 (ip), vehicle: saline

O=C(c1ccccc1)N(C(=O)c1ccccc1)c1ccccn1
T/C (dose: 12.5 mg/kg/injection, schedule: Q01DX009 (ip), vehicle: saline with Tween-80): 103 % of control
T/C [1]: 106 % of control
T/C [2]: 112 % of control
T/C [3]: 87 % of control
T/C [4]: 86 % of control
T/C (dose: 400.0 mg/kg/injection, schedule: Q01DX009 (ip), vehicle: saline with Tween-80): 93 % of control

Nc1c(O)c(S(=O)(=O)O)c(O)c2c1C(=O)c1ccccc1C2=O
T/C [5]: 100 % of control
T/C [6]: 98 % of control

COc1cc(Br)c(CC(=O)c2ccc3c(c2)OCO3)cc1OC
T/C [7]: 86 % of control
T/C [8]: 87 % of control

O=NN(CCBr)C(=O)Nc1ccccc1
T/C (dose: 6.0 mg/kg/injection, schedule: Q01DX009 (ip), vehicle: saline with Tween-80): 154 % of control
T/C (dose: 12.0 mg/kg/injection, schedule: Q01DX009 (ip), vehicle: saline with Tween-80): 177 % of control
T/C [1]: 177 % of control
T/C (dose: 37.5 mg/kg/injection, schedule: Q01DX009 (ip), vehicle: saline with Tween-80): 175 % of control
T/C (dose: 66.0 mg/kg/injection, schedule: Q04DX003 (ip), vehicle: saline): 118 % of control
T/C (dose: 100.0 mg/kg/injection, schedule: Q04DX003 (ip), vehicle: saline): 109 % of control
T/C (dose: 150.0 mg/kg/injection, schedule: Q04DX003 (ip), vehicle: saline): 100 % of control

CCc1nc(N)nc(N)c1-c1ccc(Cl)c(NC(C)=O)c1
T/C (dose: 3.13 mg/kg/injection, schedule: Q01DX009 (ip), vehicle: distilled water + Tween-80): 94 % of control
T/C (dose: 6.25 mg/kg/injection, schedule: Q01DX009 (ip), vehicle: distilled water + Tween-80): 94 % of control
T/C (dose: 12.5 mg/kg/injection, schedule: Q01DX009 (ip), vehicle: distilled water + Tween-80): 94 % of control
T/C (dose: 25.0 mg/kg/injection, schedule: Q01DX009 (ip), vehicle: distilled water + Tween-80): 88 % of control
T/C (dose: 50.0 mg/kg/injection, schedule: Q01DX009 (ip), vehicle: distilled water + Tween-80): 91 % of control

C=C(C)c1c2c(SC)ccc(SC)c2cc2c(SC)ccc(SC)c12
T/C (dose: 100.0 mg/kg/injection, schedule: Q01DX001 (ip), vehicle: saline with Tween-80): 96 % of control
T/C (dose: 200.0 mg/kg/injection, schedule: Q01DX001 (ip), vehicle: saline with Tween-80): 98 % of control
T/C (dose: 400.0 mg/kg/injection, schedule: Q01DX001 (ip), vehicle: saline with Tween-80): 95 % of control

O=C(Nc1ccccc1)C1(Cl)CCCCC1
T/C (dose: 100.0 mg/kg/injection, schedule: Q01DX001 (ip), vehicle: Klucel (hydroxypropylcellulose) (HPC)): 90 % of control
T/C (dose: 200.0 mg/kg/injection, schedule: Q01DX001 (ip), vehicle: Klucel (hydroxypropylcellulose) (HPC)): 92 % of control
T/C (dose: 400.0 mg/kg/injection, schedule: Q01DX001 (ip), vehicle: Klucel (hydroxypropylcellulose) (HPC)): 91 % of control

COc1ccc(C(=O)Nc2ccccc2-c2ccccc2)cc1OC
T/C [7]: 105 % of control
T/C (dose: 100.0 mg/kg/injection, schedule: Q01DX005 (ip), vehicle: saline with Tween-80): 97 % of control
T/C [8]: 103 % of control

CS[P+]1(C)C=C(N2CCOCC2)CC1 (configuration not stated)
T/C [9]: 101 % of control
T/C [10]: 96 % of control
T/C [11]: 96 % of control

CCOCc1cn[nH]n1
T/C (dose: 60.0 mg/kg/injection, schedule: Q01DX005 (ip), vehicle: saline): 100 % of control
T/C (dose: 120.0 mg/kg/injection, schedule: Q01DX005 (ip), vehicle: saline): 100 % of control
T/C (dose: 240.0 mg/kg/injection, schedule: Q01DX005 (ip), vehicle: saline): 104 % of control

CC(=O)Oc1ccc(CC(=O)O)cc1
T/C [1]: 107 % of control
T/C [2]: 103 % of control
T/C [3]: 103 % of control
T/C [4]: 107 % of control

CCOC(=O)NC(=S)Nc1nonc1-c1ccccc1
T/C [5]: 96 % of control
T/C [6]: 100 % of control
T/C (dose: 240.0 mg/kg/injection, schedule: Q01DX005 (ip), vehicle: saline with Tween-80): 97 % of control

CSCCC(NC(C)=O)C(C)=O (configuration not stated)
T/C [9]: 110 % of control
T/C [10]: 109 % of control
T/C [11]: 105 % of control

CSc1nc(-c2ccccc2)c(C(=O)NC(C)CN2CCCCC2)s1 (configuration not stated)
T/C [5]: 95 % of control
T/C [6]: 100 % of control

O=C(/C=C/C=C/c1ccccc1)c1ccco1
T/C [2]: 94 % of control
T/C [3]: 94 % of control
T/C [4]: 99 % of control
